Results as given in ChEMBL document CHEMBL4118215, “Design and synthesis of functionalized piperazin-1yl-(E)-stilbenes as inhibitors of 17α-hydroxylase-C17,20-lyase (Cyp17)” (Bioorg Med Chem Lett, 2018).
Each block holds one compound with its values, some of them ahead of it.

Key:
[1] = biological target: T1, Steroid 17-alpha-hydroxylase/17,20 lyase (Homo sapiens, UniProt P05093); experiment: Inhibition of recombinant CYP17 (unknown origin) expressed in human AD293 cells using [21-3H]17alpha-hydroxypregnenolone as substrate preincubated for 60 mins followed by substrate addition measured after 4 hrs Topcount method; type: cell-based
T1 sequence (P05093 whole entry): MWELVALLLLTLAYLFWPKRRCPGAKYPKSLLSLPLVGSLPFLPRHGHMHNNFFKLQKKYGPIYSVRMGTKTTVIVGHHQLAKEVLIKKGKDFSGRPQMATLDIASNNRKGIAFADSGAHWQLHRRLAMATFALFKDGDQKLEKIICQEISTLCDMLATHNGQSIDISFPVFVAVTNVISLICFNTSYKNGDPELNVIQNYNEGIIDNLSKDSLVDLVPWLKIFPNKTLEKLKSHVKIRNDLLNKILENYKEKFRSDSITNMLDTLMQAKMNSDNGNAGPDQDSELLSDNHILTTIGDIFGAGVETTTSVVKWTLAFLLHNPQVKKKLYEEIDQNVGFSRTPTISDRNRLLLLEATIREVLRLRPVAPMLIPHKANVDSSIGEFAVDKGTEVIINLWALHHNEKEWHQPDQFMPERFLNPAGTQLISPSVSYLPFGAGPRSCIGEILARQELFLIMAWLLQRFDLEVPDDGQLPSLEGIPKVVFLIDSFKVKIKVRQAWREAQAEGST

[2] = Clearance in guinea pig at 1 mg/kg, iv by LC-MS/MS analysis; type: ADME, organism-based, Cavia porcellus; conditions: in vivo
[3] = Cmax in guinea pig at 1 mg/kg, iv by LC-MS/MS analysis; type: ADME, organism-based, Cavia porcellus; parameters: dose 1 mg/kg, route intravenous; conditions: in vivo
[4] = Volume of distribution in guinea pig at 1 mg/kg, iv by LC-MS/MS analysis; type: ADME, organism-based, Cavia porcellus; conditions: in vivo
[5] = Half-life in guinea pig at 1 mg/kg, iv by LC-MS/MS analysis; type: ADME, organism-based, Cavia porcellus; conditions: in vivo
[6] = Half-life in guinea pig liver microsomes in presence of NADPH regenerating system by LC/MS/MS method; type: ADME, Cavia porcellus, microsome
Cavia porcellus [7] = experiment: Cmax in guinea pig at 10 mg/kg, po by LC-MS/MS analysis; type: ADME, organism-based; parameters: dose 10 mg/kg, route oral; conditions: in vivo
Homo sapiens [8] = species on record: Homo sapiens; experiment: Selectivity index, ratio of IC50 for human CYP3A4 to IC50 for recombinant CYP17 (unknown origin)
Cavia porcellus [9] = experiment: Half-life in guinea pig at 10 mg/kg, po by LC-MS/MS analysis; type: ADME, organism-based; conditions: in vivo
Cavia porcellus [10] = experiment: AUC (0 to infinity) in guinea pig at 10 mg/kg, po by LC-MS/MS analysis; type: ADME, organism-based; parameters: dose 10 mg/kg, time infinity, route oral; conditions: in vivo
[11] = Tmax in guinea pig at 1 mg/kg, iv by LC-MS/MS analysis; type: ADME, organism-based, Cavia porcellus; conditions: in vivo
[12] = AUC (0 to infinity) in guinea pig at 1 mg/kg, iv by LC-MS/MS analysis; type: ADME, organism-based, Cavia porcellus; parameters: dose 1 mg/kg, route intravenous, time infinity; conditions: in vivo
Homo sapiens [13] = species on record: Homo sapiens; experiment: Selectivity index, ratio of IC50 for CYP19 (unknown origin) to IC50 for recombinant CYP17 (unknown origin)
Cavia porcellus [14] = experiment: Oral bioavailability in guinea pig at 10 mg/kg by LC-MS/MS analysis; type: ADME, organism-based; conditions: in vivo

Compound: N=C(N)N1CCN(c2ccc(/C=C/c3cc(Cl)cc(-c4ccncc4)c3)cc2)CC1
IC50 [1]: 17 nM

Compound: CCS(=O)(=O)N1CCN(c2ccc(/C=C/c3cc(F)cc(-c4ccncc4)c3)cc2)CC1
clearance [2]: 8.79 mL/min/kg
Cmax [3]: 852 ng/mL
Vd [4]: 4.05 L/kg
half-life [5]: 5.7 h
half-life [6]: 1 h
Cmax (Cavia porcellus [7]): 540 ng/mL
Ratio IC50 (Homo sapiens [8]): 49
t1/2 (Cavia porcellus [9]): 4.8 h
AUC (Cavia porcellus [10]): 4190 ng·h/mL
Tmax [11]: 0.15 h
AUC(0-inf) [12]: 2000 ng·h/mL
Ratio IC50 (Homo sapiens [13]): 2000

Compound: CC(=O)N1CCN(c2ccc(OCC3COC(Cn4ccnc4)(c4ccc(Cl)cc4Cl)O3)cc2)CC1 (stereo unspecified) [KETOCONAZOLE]
half-life [6]: 0.667 h

Compound: O=S(=O)(C1CC1)N1CCN(c2ccc(/C=C/c3cc(F)cc(Cn4ccnc4)c3)cc2)CC1
IC50 [1]: 34 nM

Compound: CC(=O)N1CCN(c2ccc(/C=C/c3cc(F)cc(-c4ccncc4)c3)cc2)CC1
F (Cavia porcellus [14]): 184.2%
clearance [2]: 28.5 mL/min/kg
Cmax [3]: 132 ng/mL
Vd [4]: 14.8 L/kg
half-life [5]: 6 h
half-life [6]: 1 h
Cmax (Cavia porcellus [7]): 1018 ng/mL
Ratio IC50 (Homo sapiens [8]): 151
t1/2 (Cavia porcellus [9]): 6 h
AUC (Cavia porcellus [10]): 14890 ng·h/mL
Tmax [11]: 0.1 h
AUC(0-inf) [12]: 586 ng·h/mL
Ratio IC50 (Homo sapiens [13]): 2170

More lines, now with the values ahead:

IC50 [1]: 5 nM
Compound: O=S(=O)(C(F)F)N1CCN(c2ccc(/C=C/c3cc(F)cc(-c4ccncc4)c3)cc2)CC1

IC50 [1]: 5 nM
Compound: O=S(=O)(C(F)F)N1CCN(c2ccc(/C=C/c3cc(Cl)cc(-c4ccncc4)c3)cc2)CC1

IC50 [1]: 1 nM
Compound: O=S(=O)(C1CC1)N1CCN(c2ccc(/C=C/c3cc(F)cc(-c4ccncc4)c3)cc2)CC1

IC50 [1]: 2 nM
clearance [2]: 20.9 mL/min/kg
Cmax [3]: 203 ng/mL
Vd [4]: 9.1 L/kg
half-life [5]: 5 h
half-life [6]: 1 h
Cmax (Cavia porcellus [7]): 271 ng/mL
Ratio IC50 (Homo sapiens [8]): 1560
t1/2 (Cavia porcellus [9]): 5.25 h
AUC (Cavia porcellus [10]): 2452 ng·h/mL
Tmax [11]: 0.2 h
AUC(0-inf) [12]: 815 ng·h/mL
Ratio IC50 (Homo sapiens [13]): 167
Compound: O=S(=O)(N1CCN(c2ccc(/C=C/c3cc(F)cc(-c4ccncc4)c3)cc2)CC1)C(F)(F)F

IC50 [1]: 5 nM
Compound: O=S(=O)(C(F)F)N1CCN(c2ccc(/C=C/c3cc(F)cc(Cn4ccnc4)c3)cc2)CC1

IC50 [1]: 6 nM
Compound: N#CCS(=O)(=O)N1CCN(c2ccc(/C=C/c3cc(Cl)cc(-c4ccncc4)c3)cc2)CC1
